Results published in PubChem BioAssay AID2060486 (Molecular Pharmacology Branch, DTP, NCI, 2025).

Tested on: IGROV1 complex spheroids (HUVEC, MSC), viability % test/control
Assay: Anticancer human tumor IGROV1 cell line growth inhibition [GQUAD];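 note: spheroids exposed to compounds for 7 days before readout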;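 for viability, T/C: 100% = DMSO vehicle control viability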
Conditions: for IC50: curve of first compound; for viability, T/C: stronger effect = lower value
How it was run: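 Multi-cell-type spheroids of tumor cells with HUVEC and mesenchymal stem cells, treated with drug combinations. Concentrations descend in half-log steps from near clinical Cmax, or from 10 microM where Cmax is unknown; viability read-out.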

[1] = second compound 0.0316 µM, first compound 0.0316 µM
[2] = second compound 0.0316 µM, first compound 0.1 µM
[3] = second compound 0.0316 µM, first compound 0.316 µM
[4] = second compound 0.0316 µM, first compound 1 µM
[5] = second compound 0.0316 µM, first compound 3.16 µM
[6] = second compound 0.0316 µM, first compound 10 µM
[7] = second compound 0.1 µM, first compound 0.0316 µM
[8] = second compound 0.1 µM, first compound 0.1 µM
[9] = second compound 0.1 µM, first compound 0.316 µM
[10] = second compound 0.1 µM, first compound 1 µM
[11] = second compound 0.1 µM, first compound 3.16 µM
[12] = second compound 0.1 µM, first compound 10 µM
[13] = second compound 0.316 µM, first compound 0.0316 µM
[14] = second compound 0.316 µM, first compound 0.1 µM
[15] = second compound 0.316 µM, first compound 0.316 µM
[16] = second compound 0.316 µM, first compound 1 µM
[17] = second compound 0.316 µM, first compound 3.16 µM
[18] = second compound 0.316 µM, first compound 10 µM
[19] = second compound 1 µM, first compound 0.0316 µM
[20] = second compound 1 µM, first compound 0.1 µM
[21] = second compound 1 µM, first compound 0.316 µM
[22] = second compound 1 µM, first compound 1 µM
[23] = second compound 1 µM, first compound 3.16 µM
[24] = second compound 1 µM, first compound 10 µM
[25] = second compound 3.16 µM, first compound 0.0316 µM
[26] = second compound 3.16 µM, first compound 0.1 µM
[27] = second compound 3.16 µM, first compound 0.316 µM
[28] = second compound 3.16 µM, first compound 1 µM
[29] = second compound 3.16 µM, first compound 3.16 µM
[30] = second compound 3.16 µM, first compound 10 µM
[31] = second compound 10 µM, first compound 0.0316 µM
[32] = second compound 10 µM, first compound 0.1 µM
[33] = second compound 10 µM, first compound 0.316 µM
[34] = second compound 10 µM, first compound 1 µM
[35] = second compound 10 µM, first compound 3.16 µM
[36] = second compound 10 µM, first compound 10 µM

Question: How did the IC50 (second compound 0.0316 µM) turn out when `C#Cc1c(F)ccc2cc(O)cc(-c3ncc4c(N5CC6CCC(C5)N6)nc(OCC56CCCN5CC(F)C6)nc4c3F)c12` (stereo not drawn) + CN(C)c1ccc(Nc2c3ccc(NC(=O)CCN4CCCC4)cc3nc3cc(NC(=O)CCN4CCCC4)ccc23)cc1 was run?
Answer: > 10 µM

Question: And the IC50 (second compound 0.1 µM)?
Answer: > 10 µM

Question: And the IC50 (second compound 0.316 µM)?
Answer: > 10 µM

Question: And the IC50 (second compound 1 µM)?
Answer: 8.19 µM

Question: What about the IC50 (second compound 3.16 µM) of the same compound?
Answer: 5.09 µM

Question: And the IC50 (second compound 10 µM)?
Answer: 0.378 µM

Question: What about the viability, T/C [1] of the same compound?
Answer: 106%

Question: What about the viability, T/C [2] of the same compound?
Answer: 76.6%

Question: What about the viability, T/C [3] of the same compound?
Answer: 97.9%

Question: And the viability, T/C [4]?
Answer: 78.1%

Question: What about the viability, T/C [5] of the same compound?
Answer: 84.5%

Question: And the viability, T/C [6]?
Answer: 62.2%

Question: What about the viability, T/C [7] of the same compound?
Answer: 97.3%

Question: What about the viability, T/C [8] of the same compound?
Answer: 83.7%

Question: And the viability, T/C [9]?
Answer: 88%

Question: And the viability, T/C [10]?
Answer: 84.3%

Question: And the viability, T/C [11]?
Answer: 93%

Question: What about the viability, T/C [12] of the same compound?
Answer: 62.1%

Question: And the viability, T/C [13]?
Answer: 87.8%

Question: What about the viability, T/C [14] of the same compound?
Answer: 99.1%

Question: What about the viability, T/C [15] of the same compound?
Answer: 76.3%

Question: And the viability, T/C [16]?
Answer: 86%

Question: And the viability, T/C [17]?
Answer: 89.5%

Question: What about the viability, T/C [18] of the same compound?
Answer: 54%

Question: What about the viability, T/C [19] of the same compound?
Answer: 86.1%

Question: What about the viability, T/C [20] of the same compound?
Answer: 89%

Question: And the viability, T/C [21]?
Answer: 86.7%

Question: And the viability, T/C [22]?
Answer: 73.6%

Question: What about the viability, T/C [23] of the same compound?
Answer: 74.1%

Question: And the viability, T/C [24]?
Answer: 44.8%

Question: What about the viability, T/C [25] of the same compound?
Answer: 86.4%

Question: And the viability, T/C [26]?
Answer: 85.4%

Question: And the viability, T/C [27]?
Answer: 87.7%

Question: And the viability, T/C [28]?
Answer: 79%

Question: What about the viability, T/C [29] of the same compound?
Answer: 66.2%

Question: What about the viability, T/C [30] of the same compound?
Answer: 27.9%

Question: And the viability, T/C [31]?
Answer: 50%

Question: And the viability, T/C [32]?
Answer: 50.4%

Question: And the viability, T/C [33]?
Answer: 59.8%

Question: What about the viability, T/C [34] of the same compound?
Answer: 38%

Question: What about the viability, T/C [35] of the same compound?
Answer: 17.2%

Question: What about the viability, T/C [36] of the same compound?
Answer: 5.16%

Question: Which results are given for `C=CCn1c(=O)c2cnc(Nc3ccc(N4CCN(C)CC4)cc3)nc2n1-c1cccc(C(C)(C)O)n1` + CN(C)c1ccc(Nc2c3ccc(NC(=O)CCN4CCCC4)cc3nc3cc(NC(=O)CCN4CCCC4)ccc23)cc1?
Answer: IC50 (second compound 0.0316 µM): 0.153 µM; IC50 (second compound 0.1 µM): 0.145 µM; IC50 (second compound 0.316 µM): 0.138 µM; IC50 (second compound 1 µM): 0.136 µM; IC50 (second compound 3.16 µM): 0.112 µM; IC50 (second compound 10 µM): < 0.0316 µM; viability, T/C [1]: 92.4%; viability, T/C [2]: 72.3%; viability, T/C [3]: 12.3%; viability, T/C [4]: 3.27%; viability, T/C [5]: 3.29%; viability, T/C [6]: 2.49%; viability, T/C [7]: 90.8%; viability, T/C [8]: 68.1%; viability, T/C [9]: 12.1%; viability, T/C [10]: 2.73%; viability, T/C [11]: 2.54%; viability, T/C [12]: 2.34%; viability, T/C [13]: 76.4%; viability, T/C [14]: 65.5%; viability, T/C [15]: 10.3%; viability, T/C [16]: 3.01%; viability, T/C [17]: 2.63%; viability, T/C [18]: 1.87%; viability, T/C [19]: 61.6%; viability, T/C [20]: 69.2%; viability, T/C [21]: 8.29%; viability, T/C [22]: 2.65%; viability, T/C [23]: 2.66%; viability, T/C [24]: 2.32%; viability, T/C [25]: 67.7%; viability, T/C [26]: 54.5%; viability, T/C [27]: 7.41%; viability, T/C [28]: 3.03%; viability, T/C [29]: 2.47%; viability, T/C [30]: 1.97%; viability, T/C [31]: 37.6%; viability, T/C [32]: 27.4%; viability, T/C [33]: 5.31%; viability, T/C [34]: 2.61%; viability, T/C [35]: 1.87%; viability, T/C [36]: 1.28%

Question: Which results are given for `CC(C)(O)C1CCC(Nc2ccc3ncc(-c4cccc(C(F)(F)F)c4)n3n2)CC1` (stereo not drawn) + CN(C)c1ccc(Nc2c3ccc(NC(=O)CCN4CCCC4)cc3nc3cc(NC(=O)CCN4CCCC4)ccc23)cc1?
Answer: IC50 (second compound 0.0316 µM): 2.18 µM; IC50 (second compound 0.1 µM): 2.24 µM; IC50 (second compound 0.316 µM): 1.42 µM; IC50 (second compound 1 µM): 1.75 µM; IC50 (second compound 3.16 µM): 1.37 µM; IC50 (second compound 10 µM): 0.134 µM; viability, T/C [1]: 103%; viability, T/C [2]: 83.8%; viability, T/C [3]: 74.8%; viability, T/C [4]: 74%; viability, T/C [5]: 32.3%; viability, T/C [6]: 35.5%; viability, T/C [7]: 101%; viability, T/C [8]: 91.8%; viability, T/C [9]: 70.6%; viability, T/C [10]: 70.1%; viability, T/C [11]: 36.7%; viability, T/C [12]: 39.5%; viability, T/C [13]: 93.7%; viability, T/C [14]: 63.9%; viability, T/C [15]: 85.9%; viability, T/C [16]: 58%; viability, T/C [17]: 30.1%; viability, T/C [18]: 33.2%; viability, T/C [19]: 86.6%; viability, T/C [20]: 92.6%; viability, T/C [21]: 78.8%; viability, T/C [22]: 72.3%; viability, T/C [23]: 26.2%; viability, T/C [24]: 23%; viability, T/C [25]: 77%; viability, T/C [26]: 81.9%; viability, T/C [27]: 78.2%; viability, T/C [28]: 61.9%; viability, T/C [29]: 18.6%; viability, T/C [30]: 9.94%; viability, T/C [31]: 60.9%; viability, T/C [32]: 54.3%; viability, T/C [33]: 37.5%; viability, T/C [34]: 25.9%; viability, T/C [35]: 5.34%; viability, T/C [36]: 2.55%

Question: With `CCCS(=O)(=O)Nc1ccc(F)c(C(=O)c2c[nH]c3ncc(-c4ccc(Cl)cc4)cc23)c1F` + CN(C)c1ccc(Nc2c3ccc(NC(=O)CCN4CCCC4)cc3nc3cc(NC(=O)CCN4CCCC4)ccc23)cc1 as the compound, how does the IC50 (second compound 0.0316 µM) read?
Answer: 5.67 µM

Question: And the IC50 (second compound 0.1 µM)?
Answer: 5.61 µM

Question: What about the IC50 (second compound 0.316 µM) of the same compound?
Answer: 5.39 µM

Question: What about the IC50 (second compound 1 µM) of the same compound?
Answer: 5.19 µM

Question: What about the IC50 (second compound 3.16 µM) of the same compound?
Answer: 4.48 µM

Question: And the IC50 (second compound 10 µM)?
Answer: 1.46 µM

Question: What about the viability, T/C [1] of the same compound?
Answer: 103%

Question: And the viability, T/C [2]?
Answer: 84.7%

Question: What about the viability, T/C [3] of the same compound?
Answer: 112%

Question: And the viability, T/C [4]?
Answer: 79.3%

Question: And the viability, T/C [5]?
Answer: 86.7%

Question: What about the viability, T/C [6] of the same compound?
Answer: 17.7%

Question: What about the viability, T/C [7] of the same compound?
Answer: 103%

Question: What about the viability, T/C [8] of the same compound?
Answer: 73.7%

Question: What about the viability, T/C [9] of the same compound?
Answer: 90.4%

Question: What about the viability, T/C [10] of the same compound?
Answer: 72%

Question: And the viability, T/C [11]?
Answer: 83.5%

Question: And the viability, T/C [12]?
Answer: 16.2%

Question: And the viability, T/C [13]?
Answer: 86.2%

Question: What about the viability, T/C [14] of the same compound?
Answer: 99.7%

Question: And the viability, T/C [15]?
Answer: 98%

Question: And the viability, T/C [16]?
Answer: 80.5%

Question: What about the viability, T/C [17] of the same compound?
Answer: 82.3%

Question: And the viability, T/C [18]?
Answer: 15.1%

Question: What about the viability, T/C [19] of the same compound?
Answer: 57.9%

Question: And the viability, T/C [20]?
Answer: 97.9%

Question: And the viability, T/C [21]?
Answer: 88%

Question: And the viability, T/C [22]?
Answer: 89.3%

Question: And the viability, T/C [23]?
Answer: 77.7%

Question: And the viability, T/C [24]?
Answer: 13.2%

Question: And the viability, T/C [25]?
Answer: 78.1%

Question: What about the viability, T/C [26] of the same compound?
Answer: 88.7%

Question: And the viability, T/C [27]?
Answer: 82.4%

Question: What about the viability, T/C [28] of the same compound?
Answer: 96.2%

Question: What about the viability, T/C [29] of the same compound?
Answer: 67.4%

Question: What about the viability, T/C [30] of the same compound?
Answer: 9.77%

Question: And the viability, T/C [31]?
Answer: 53.1%

Question: What about the viability, T/C [32] of the same compound?
Answer: 59.3%

Question: What about the viability, T/C [33] of the same compound?
Answer: 60.7%

Question: What about the viability, T/C [34] of the same compound?
Answer: 67.9%

Question: What about the viability, T/C [35] of the same compound?
Answer: 29.2%

Question: What about the viability, T/C [36] of the same compound?
Answer: 3.73%
